Results on four compounds are retold here after patent US20260132118A1, “SALT FORMS OF R-MDMA AND METHODS USING THE SAME” (EmpathBio, Inc., priority 2022, published 2026).

For series [1] the following is noted: background; cited from earlier work.
A short description of series [2]: Approximate aqueous solubility by aliquot addition. Conditions: for Solubility: approximate aqueous solubility; for Observations (solubility experiment): aqueous.
Description: The small sample sizes, aliquot volumes, and kinetic nature of the solubility measurements contribute a degree of uncertainty to the reported values.
The nature of series [3]: Physical stability testing: stressing solids at elevated relative humidity or storage, monitored by XRPD. It is filed as physicochemical.
Series [4] can be described thus: Dynamic Vapor Sorption (DVS). The series is classed as physicochemical. The settings on record: for DVS weight loss: desorption 95-6% RH; for DVS weight loss / DVS weight gain: 10% RH increments, nitrogen purge; for Solid form post-DVS (XRPD): post-DVS solids; for DVS weight gain: sorption 5-95% RH. The procedure: DVS data was collected on a Surface Measurement System DVS Intrinsic instrument. Samples were not dried prior to analysis. […] The equilibrium criterion used for analysis was less than 0.0100% weight change in 5 minutes with a maximum equilibration time of 3 hours. Data was not corrected for the initial moisture content of the samples.

Where [5] appears, read: listed as O-methyl Mandelate Form A.

Where “and” joins values, the source holds several entries; their conditions need not be identical. Identical values can stand only once.

As to `CNC(C)Cc1ccc2c(c1)OCO2` (centres unmarked) [MDMA free base, 3,4-Methylenedioxymethamphetamine], the “Solubility in water (in words)” value in series [1] is recorded as “insoluble in water”.

With `CNC(C)Cc1ccc2c(c1)OCO2.Cl` (centres unmarked) [MDMA hydrochloride salt], the “Solubility in water (in words)” value in series [1] is given as “soluble in water”.

Regarding `CN[C@H](C)Cc1ccc2c(c1)OCO2.O=[N+]([O-])O` [Nitrate Form A], in series [2], the Solubility (commonly how much of the substance goes into solution per volume) is 3 ± 1 mg/mL and 3 mg/mL; the “Observations (solubility experiment)” value was “clear solution”. Moreover, the “Physical stability upon stressing at ~90% RH” value in series [3] (13 days) is “remained physically stable”.

Turning to `CN[C@H](C)Cc1ccc2c(c1)OCO2.COC(C(=O)O)c1ccccc1` [O-Methyl Mandelate Form A], in series [2], the Solubility was 26 ± 1 mg/mL and ~26 mg/mL; the “Observations (solubility experiment)” value is recorded as “clear solution”. Moreover, the “DVS desorption behaviour / hysteresis” value in series [4] (5% to 95% RH) is reported as “all mass gained in sorption was lost on desorption with minimal hysteresis”. Moreover, the “Hygroscopicity (in words)” value in series [4] (DVS isotherm) is reported as “low kinetic hygroscopicity”. Further, in series [4] (between 5% and 95% RH), the “Kinetic hygroscopicity (sorption/desorption)” value was found to be 0.2%. In addition, in series [4], the DVS weight loss is reported as 0.21±0.02%; the “Solid form post-DVS (XRPD)” value was “remained unchanged”; the DVS weight gain was 0.18±0.02% and 0.18%. In series [4] (setting [5]), the DVS weight loss is listed as 0.21%, the “Solid form post-DVS (XRPD)” value was “O-Methyl Mandelate Form A” and the DVS weight gain is 0.18%. Moreover, the “Physical stability upon stressing at ~90% RH” value in series [3] (8 days) was “remained physically stable”.
